From paper PMC5423295, “Positive Modulatory Interactions of NMDA Receptor GluN1/2B Ligand Binding Domains Attenuate Antagonists Activity” (Frontiers in Pharmacology, 2017)

What was measured:
Test in all cases: two-electrode voltage clamp, Xenopus oocytes
Format in all cases: cell-based
Conditions in all cases: read-out: EC50 or IC50
[1] = molecular target: T1, GluN1/2B NMDA receptor (GluN1a + GluN2B) (Rattus norvegicus, UniProt P35439+Q00960)
T1 construct: gene Grin1; cRNAs 1:1-3 in Xenopus oocytes; heterotetramer

[2] = molecular target: T2, GluN1/2B NMDA receptor (GluN1a + GluN2B) (Rattus norvegicus, UniProt P35439+Q00960, P35439:E781A)
T2 construct: gene Grin1; cRNAs 1:1-3 in Xenopus oocytes; heterotetramer
Source text: (§1) two-electrode voltage clamp, Xenopus oocytes on GluN1/2B NMDA receptor (GluN1a + GluN2B)

[3] = molecular target: T3, GluN1/2B NMDA receptor (GluN1a + GluN2B) (Rattus norvegicus, UniProt P35439+Q00960, P35439:Y535A)
T3 construct: gene Grin1; cRNAs 1:1-3 in Xenopus oocytes; heterotetramer
Source text: as §1

T1 sequence (Q00960 27-1482, other chains not shown): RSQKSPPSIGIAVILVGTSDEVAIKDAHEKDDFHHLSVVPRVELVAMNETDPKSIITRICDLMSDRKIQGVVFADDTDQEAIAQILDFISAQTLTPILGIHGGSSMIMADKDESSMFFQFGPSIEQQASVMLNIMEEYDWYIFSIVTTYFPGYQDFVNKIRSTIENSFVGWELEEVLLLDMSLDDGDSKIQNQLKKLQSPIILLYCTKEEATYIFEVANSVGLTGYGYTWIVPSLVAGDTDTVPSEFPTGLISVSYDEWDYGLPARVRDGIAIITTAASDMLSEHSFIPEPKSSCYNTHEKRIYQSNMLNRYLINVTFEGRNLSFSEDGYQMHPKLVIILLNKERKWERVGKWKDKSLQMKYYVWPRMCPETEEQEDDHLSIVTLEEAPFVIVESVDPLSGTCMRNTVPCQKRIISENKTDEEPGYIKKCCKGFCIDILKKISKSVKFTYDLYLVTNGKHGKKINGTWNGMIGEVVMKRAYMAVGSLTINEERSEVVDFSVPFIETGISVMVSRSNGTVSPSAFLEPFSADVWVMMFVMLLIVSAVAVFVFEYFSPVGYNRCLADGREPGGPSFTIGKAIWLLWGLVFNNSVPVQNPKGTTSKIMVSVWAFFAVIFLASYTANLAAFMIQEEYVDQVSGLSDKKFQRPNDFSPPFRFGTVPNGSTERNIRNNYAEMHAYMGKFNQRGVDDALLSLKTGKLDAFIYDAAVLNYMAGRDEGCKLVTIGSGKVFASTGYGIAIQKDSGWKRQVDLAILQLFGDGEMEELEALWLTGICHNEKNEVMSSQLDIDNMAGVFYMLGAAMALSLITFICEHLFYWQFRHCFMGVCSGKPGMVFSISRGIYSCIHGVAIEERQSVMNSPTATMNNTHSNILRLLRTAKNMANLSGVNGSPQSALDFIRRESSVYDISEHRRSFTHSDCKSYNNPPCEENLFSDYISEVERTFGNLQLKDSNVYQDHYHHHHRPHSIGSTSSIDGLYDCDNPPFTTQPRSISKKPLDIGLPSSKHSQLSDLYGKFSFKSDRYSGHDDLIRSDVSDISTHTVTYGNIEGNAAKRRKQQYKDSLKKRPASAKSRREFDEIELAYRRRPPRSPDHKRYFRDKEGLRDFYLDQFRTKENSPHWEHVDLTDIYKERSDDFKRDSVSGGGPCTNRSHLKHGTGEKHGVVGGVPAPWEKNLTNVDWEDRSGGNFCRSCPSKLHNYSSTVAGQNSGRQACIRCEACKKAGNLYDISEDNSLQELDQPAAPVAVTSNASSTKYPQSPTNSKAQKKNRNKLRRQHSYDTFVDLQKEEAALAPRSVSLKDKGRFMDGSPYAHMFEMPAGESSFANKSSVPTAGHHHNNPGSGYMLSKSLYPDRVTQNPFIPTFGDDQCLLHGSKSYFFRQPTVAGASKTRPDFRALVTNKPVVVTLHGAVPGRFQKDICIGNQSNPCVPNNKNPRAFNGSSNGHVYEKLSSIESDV
T3 sequence (Q00960 27-1482, other chains not shown): as above
T2 sequence (Q00960 27-1482, other chains not shown): as above

IC50 [1] [nM]	IC50 [2] [nM]	IC50 [3] [nM]	Compound
35700 ± 1300			NC(CCCP(=O)(O)O)C(=O)O (racemic) [DL-AP5]
4630 ± 330	610 ± 90	160 ± 20	O=C(O)c1cc(O)c2c(Cl)cc(Cl)cc2n1 [5,7-DCKA]
